The subject of series [1] is Human immunodeficiency virus 1. The experiment in a line: Antiviral activity against HIV1 NL4-3 Env-deficient pseudotype virus infected in human U87.CD4.CCR5.CXCR4 cells assessed by reduction in viral infection in early stage at 5 uM measured after 48 hrs by luciferase activity based single-round infection assay. It counts as functional. The arrangement: scale not given: the % may be the effect or the level left.

In series [2] the test system is Human immunodeficiency virus 1. The experiment in a line: Antiviral activity against HIV1 NL4-3 Env-deficient pseudotype virus infected in human U87.CD4.CCR5.CXCR4 cells assessed by reduction in viral infection in late stage at 5 uM measured after 48 hrs by luciferase activity based single-round infection assay. The format is functional. Also noted: scale not given: the % may be the effect or the level left.

For series [3] the following is noted: human, microsomes, 3 h, 100 µM.
In series [4] the test system is Human immunodeficiency virus 1. Description: Antiviral activity against wild type HIV-1 IIIB infected in human MT4 cells assessed as protection against virus-induced cytopathic effect measured after 5 days by MTT assay. The format is functional, organism-based. The settings on record: Human immunodeficiency virus 1, IIIB, MT4, 120 h.
In series [5] the test system is MT4. Description: (§1) Cytotoxicity against human MT4 cells assessed as reduction in cell viability incubated for 5 days by MTT assay. The settings on record: mt4, 120 h. In general terms: Tetrazolium dyes change colour on reduction, which living cells bring about.
Series [6] can be described thus: in vitro. The settings on record: human, MT4 cells.
Description: Selectivity index, ratio of CC50 for cytotoxicity against human MT4 cells to EC50 for antiviral activity against HIV-1 IIIB infected in human MT4 cells
The test system of series [7] is Human immunodeficiency virus 1. Description: Antiviral activity against HIV1 NL4-3 Env-deficient pseudotype virus infected in human U87.CD4.CCR5.CXCR4 cells assessed by reduction in viral infection in early stage at 1 uM measured after 48 hrs by luciferase activity based single-round infection assay. Also noted: scale not given: the % may be the effect or the level left. The format is functional.

Series [8] deals with Human immunodeficiency virus 1. The experiment in a line: Antiviral activity against HIV1 NL4-3 Env-deficient pseudotype virus infected in human U87.CD4.CCR5.CXCR4 cells assessed by reduction in viral infection in late stage at 1 uM measured after 48 hrs by luciferase activity based single-round infection assay. It counts as functional. Also noted: scale not given: the % may be the effect or the level left.

The conditions of series [9]: human, microsomes, 3 h, 100 µM. This is another data set of the same source.
Series [10] in a line: in vitro. The settings on record: human, liver microsomes.
Description: Metabolic stability in human liver microsome assessed as parent compound remaining at 100 uM measured after 60 mins in presence of NADPH by LC-MS/MS analysis
The nature of series [11]: in vitro. The settings on record: human, liver microsomes. The source holds these as a separate data set. (In general: Microsomes from liver hold many membrane-bound enzymes, among them those of drug oxidation.)
Description: Metabolic stability in human liver microsome assessed as parent compound remaining at 100 uM measured after 60 mins by LC-MS/MS analysis
A short description of series [12]: as §1. The settings on record: MT4 cells.
Series [13] in a line: in vitro. The settings on record: human, MT4 cells. The source holds these as a separate data set.
Description: Selectivity index, ratio of CC50 for cytotoxicity against human MT4 cells to EC50 for antiviral activity against HIV-1 ROD infected in human MT4 cells
Series [14] is described as follows: in vitro. The settings on record: human, liver microsomes. The source holds these as a separate data set.

As for `COc1ccc(N(C)C(=O)[C@H](Cc2cc(F)cc(F)c2)NC(=O)CN2CCN(CC(=O)N[C@@H](Cc3cc(F)cc(F)c3)C(=O)N(C)c3ccc(OC)cc3)C(=O)C2)cc1`, the Activity was 86.6% in series [1] and 0.6% in series [2]. This compound also displayed a t1/2 in series [3] of 48 s.
As usually defined, the EC50 is the concentration at which the effect is half-maximal. For orientation: CC50 means the concentration giving 50% cytotoxicity. As for `COc1ccc(N(C)C(=O)[C@H](Cc2cc(F)cc(F)c2)NC(=O)CN2CCNCC2=O)cc1`, in series [4], the EC50 was determined as 31.1 µM. Besides, the CC50 in [5] is more than 272 µM.
With `COc1ccc(N(C)C(=O)[C@H](Cc2ccccc2)NC(=O)CN2CCNCC2=O)cc1`, the EC50 in series [4] turned out to be 89.2 µM. Besides, the CC50 in [5] is more than 294 µM.
Regarding `COc1ccc(N(C)C(=O)[C@H](Cc2cc(F)cc(F)c2)NC(=O)CN2CCN(CC(=O)N[C@@H](Cc3ccccc3)C(=O)N(C)c3ccc(OC)cc3)C(=O)C2)cc1`, the concentration giving a half-maximal response (EC50) in [4] worked out at 1.48 µM. In [5], the CC50 was 13.5 µM. For the same compound, the selectivity ratio in [6] was 9.11.
With `COc1ccc(N(C)C(=O)[C@H](Cc2ccccc2)NC(=O)CN2CCN(S(=O)(=O)c3ccc(N)cc3)CC2=O)cc1`, the concentration giving a half-maximal response (EC50) in series [4] turned out to be 0.16 µM. For the same compound, in series [5], the CC50 is 119 µM. In addition, the values for the Activity in [7] and in [8] were 7.1% and 55%, respectively. In addition, in [9], the CLH was 395.6 µL/min/mg. Besides, the fraction remaining at 1 h, 100 µM worked out at 0.1% in series [10] and 106% in [11].
As for `CN(C(=O)[C@H](Cc1ccccc1)NC(=O)CN1CCNCC1=O)c1ccccc1`, the EC50 in series [4] was 247 µM. The CC50 at 120 h in [12] is more than 317 µM.
With `COc1ccc(N(C)C(=O)[C@H](Cc2ccccc2)NC(=O)CN2CCN(CC(=O)N[C@@H](Cc3ccccc3)C(=O)N(C)c3ccccc3)C(=O)C2)cc1`, in [4], the 50% effective concentration (EC50) was not below 3.37 µM. Moreover, the cytotoxic concentration (CC50) in series [5] was 21.7 µM.
As for `COc1ccc(N(C)C(=O)[C@H](Cc2ccccc2)NC(=O)CN2CC(=O)N(CC(=O)N[C@@H](Cc3ccccc3)C(=O)N(C)c3ccc(OC)cc3)CC2=O)cc1`, the EC50 in [4] was 3.59 µM. In series [12], the CC50 at 120 h worked out at 24.5 µM. Besides, the selectivity ratio in series [6] is 6.82.
Regarding `COc1ccc(N(C)C(=O)[C@H](Cc2ccccc2)NC(=O)CN2CCN(CC(=O)N[C@@H](Cc3ccccc3)C(=O)N(C)c3ccccc3)CC2=O)cc1`, in [4], the EC50 is more than 32.4 µM. In series [5], the half-maximal cytotoxic concentration (CC50) was determined as 32.4 µM.
For `COc1ccc(N(C)C(=O)[C@H](Cc2ccccc2)NC(=O)CN2CCN(CC(=O)N[C@@H](Cc3ccccc3)C(=O)N(C)c3ccc(OC)cc3)C(=O)C2)cc1`, in that order: not below 3.67 µM and 15.7 µM.
For `CN(C(=O)[C@H](Cc1ccccc1)NC(=O)CN1CCN(CC(=O)N[C@@H](Cc2ccccc2)C(=O)N(C)c2ccccc2)C(=O)C1)c1ccccc1`, in that order: more than 32.6 µM and 32.6 µM.
Take `CN(C(=O)[C@H](Cc1ccccc1)NC(=O)CN1CC(=O)N(CC(=O)N[C@@H](Cc2ccccc2)C(=O)N(C)c2ccccc2)CC1=O)c1ccccc1`: in [4], the EC50 is 4.24 µM. Moreover, in series [5], the CC50 was determined as 71.8 µM. The selectivity ratio is 16.9 in series [6] and 2.41 in series [13].
As for `COc1ccc(N(C)C(=O)[C@H](Cc2cc(F)cc(F)c2)NC(=O)CN2CCN(CC(=O)N[C@@H](Cc3ccccc3)C(=O)N(C)c3ccccc3)CC2=O)cc1`, the concentration giving a half-maximal response (EC50) in series [4] turned out to be 2.84 µM. Further, the half-maximal cytotoxic concentration (CC50) in series [5] worked out at 17.5 µM. For the same compound, in series [6], the selectivity ratio was found to be 6.15.
For the compound `COc1ccc(N(C)C(=O)[C@H](Cc2cc(F)cc(F)c2)NC(=O)CN2CC(=O)N(CC(=O)N[C@@H](Cc3cc(F)cc(F)c3)C(=O)N(C)c3ccc(OC)cc3)CC2=O)cc1`, the concentration for a half-maximal effect (EC50) in series [4] came out at 0.69 µM. Moreover, the cytotoxic concentration (CC50) in series [5] stood at 13.3 µM. For the same compound, the t1/2 in series [3] was found to be 96 s. In addition, in series [9], the CLH is 843.9 µL/min/mg. In addition, the share remaining at 1 h, 100 µM was 0% in [10] and 105% in [11].
`COc1ccc(N(C)C(=O)[C@H](Cc2cc(F)cc(F)c2)NC(=O)CN2CCN(CC(=O)N[C@@H](Cc3ccccc3)C(=O)N(C)c3ccccc3)C(=O)C2)cc1`: the EC50 in [4] was found to be 4.19 µM. Moreover, the cytotoxic concentration (CC50) in series [5] amounted to 12.8 µM. In addition, in series [6], the selectivity ratio stood at 3.05.
A word on the half-life: it is how long it takes for the measured level to halve. Consider `Cc1[nH]c2ccccc2c1CC(=O)N[C@@H](Cc1ccccc1)C(=O)N(C)c1ccccc1`, for which the half-life at 3 h, 100 µM in series [14] worked out at 30 s.
For `COc1ccc(N(C)C(=O)[C@H](Cc2ccccc2)NC(=O)CN2CCN(CC(=O)N[C@@H](Cc3cc(F)cc(F)c3)C(=O)N(C)c3ccc(OC)cc3)C(=O)C2)cc1`, the concentration for a half-maximal effect (EC50) in series [4] was determined as 2.52 µM. The half-maximal cytotoxic concentration (CC50) in series [5] was 15.5 µM. Moreover, the selectivity ratio in [6] was determined as 6.14.

For the origin of these results see ChEMBL document CHEMBL5143506, “Design, synthesis, and mechanism study of dimerized phenylalanine derivatives as novel HIV-1 capsid inhibitors” (Eur J Med Chem, 2021).
